Marks after values point to notes of the source that are not given here. Values belong to the compound of their own block, whether it stands above or below them.
Columns and labels:
[1] = Plate-based fluorescence (RiboGreen) assay: nucleic acid cargo content and encapsulation efficiency of LNPs; format: physicochemical; conditions: for EE (%) N/P:3 / EE (%) N/P:6: LNP
Method in brief: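 LNPs made by microfluidic mixing of ethanolic lipids with mRNA in pH 4.0 citrate, dialyzed into PBS pH 7.4. Cargo quantified by RiboGreen fluorescence against a standard curve: Triton-lysed samples give total, TE-only samples give free cargo; encapsulation efficiency from their ratio.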

[2] = Dynamic light scattering: LNP particle size and PDI; format: physicochemical; conditions: for PDI N/P:3 / Size (nm) N/P:3 / PDI N/P:6 / Size (nm) N/P:6: LNP
Method in brief: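 The LNPs were made by microfluidic mixing of the lipids in ethanol with mRNA in pH 4.0 citrate, then dialyzed into PBS pH 7.4. They were diluted in PBS pH 7.4, and particle size and PDI were measured by dynamic light scattering.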

[3] = tested on: mouse organs; test: In vivo activity screening in mice: organ mean total flux (p/s) of luciferase activity after injection of F2 LNP pools (Table 6, FIG. 7A-7C); conditions: luciferase mRNA
Method in brief: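 Luciferase output per organ is reported as mean total flux (p/s) from IVIS regions of interest. Organs were collected from perfused C57BL/6J mice and imaged 10-15 min after s.c. D-luciferin, 4-6 h after i.v. dosing. Dosing was 0.25-3 mg/kg luciferase mRNA in F2 LNP pools.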

[4] = LNP compositions for Formulation F2 Study
[5] = LNP compositions for in vivo mouse study, four formulations (F1-F4) pooled, or pools of four compounds
[6] = LNP compositions for in vivo mouse study, four formulations (F1-F4) of the lipid compound pooled, or pools of four compounds (sixteen compositions)

EE % [1, 4]: 98%
EE % [1, 5]: 99%
mRNA Content [1, 5]: 101.7 µg/mL
EE (%) N/P:3 ([1]; Formulation F1, N/P 3): 98%
EE (%) N/P:6 ([1]; Formulation F1, N/P 6): 100%
EE (%) N/P:3 ([1]; Formulation F2, N/P 3): 98%
EE (%) N/P:6 ([1]; Formulation F2, N/P 6): 100%
EE (%) N/P:3 ([1]; Formulation F3, N/P 3): 96%
EE (%) N/P:6 ([1]; Formulation F3, N/P 6): 100%
EE (%) N/P:3 ([1]; Formulation F4, N/P 3): 98%
EE (%) N/P:6 ([1]; Formulation F4, N/P 6): 100%
PDI [2, 4]: 0.139
Particle Size (nm) [2, 4]: 125.5 nm
Particle Size (nm) [2, 6]: 91.7 nm
PDI [2, 5]: 0.176
PDI N/P:3 ([2]; Formulation F1, N/P 3): 0.208
Size (nm) N/P:3 ([2]; Formulation F1, N/P 3): 86 ± 4 nm
PDI N/P:6 ([2]; Formulation F1, N/P 6): 0.09
Size (nm) N/P:6 ([2]; Formulation F1, N/P 6): 78 ± 3 nm
PDI N/P:3 ([2]; Formulation F2, N/P 3): 0.097
Size (nm) N/P:3 ([2]; Formulation F2, N/P 3): 102 ± 3 nm
PDI N/P:6 ([2]; Formulation F2, N/P 6): 0.122
Size (nm) N/P:6 ([2]; Formulation F2, N/P 6): 96 ± 0 nm
PDI N/P:3 ([2]; Formulation F3, N/P 3): 0.081
Size (nm) N/P:3 ([2]; Formulation F3, N/P 3): 106 ± 2 nm
PDI N/P:6 ([2]; Formulation F3, N/P 6): 0.092
Size (nm) N/P:6 ([2]; Formulation F3, N/P 6): 100 ± 3 nm
PDI N/P:3 ([2]; Formulation F4, N/P 3): 0.278
Size (nm) N/P:3 ([2]; Formulation F4, N/P 3): 92 ± 4 nm
PDI N/P:6 ([2]; Formulation F4, N/P 6): 0.227
Size (nm) N/P:6 ([2]; Formulation F4, N/P 6): 78 ± 1 nm
SMILES: CCCCC/C=C\CCOC(=O)CCCCCCC(=O)OCC(COC(=O)CCCCCCC(=O)OCC/C=C\CCCCC)(COC(=O)CCCCCCC(=O)OCC/C=C\CCCCC)COC(=O)CCC(CCCCCC)OC(=O)NCCN1CCCC1 (centres unmarked) [Compound 10, O8-[2,2-bis[[8-[(Z)-non-3-enoxy]-8-oxo-octanoyl]oxymethyl]-3-[4-(2-pyrrolidin-1-ylethylcarbamoyloxy)decanoyloxy]propyl]O1-[(Z)-non-3-enyl]octanedioate]
Organ Mean Total Flux Femur ([3]; Mouse 1, dose 0.3 mg/kg): 7.1 p/s (×10^6)
Organ Mean Total Flux Heart ([3]; Mouse 1, dose 0.3 mg/kg): 4.3 p/s (×10^6)
Organ Mean Total Flux Kidney ([3]; Mouse 1, dose 0.3 mg/kg): 81.1 p/s (×10^6)
Organ Mean Total Flux Liver ([3]; Mouse 1, dose 0.3 mg/kg): 12560 p/s (×10^6)
Organ Mean Total Flux Lung ([3]; Mouse 1, dose 0.3 mg/kg): 41.5 p/s (×10^6)
Organ Mean Total Flux Muscle ([3]; Mouse 1, dose 0.3 mg/kg): 6.2 p/s (×10^6)
Organ Mean Total Flux Pancreas ([3]; Mouse 1, dose 0.3 mg/kg): 2.7 p/s (×10^6)
Organ Mean Total Flux Spleen ([3]; Mouse 1, dose 0.3 mg/kg): 12.3 p/s (×10^6)
Organ Mean Total Flux Femur ([3]; Mouse 14, dose 0.5 mg/kg): 6.5 p/s (×10^6)
Organ Mean Total Flux Heart ([3]; Mouse 14, dose 0.5 mg/kg): 2.8 p/s (×10^6)
Organ Mean Total Flux Kidney ([3]; Mouse 14, dose 0.5 mg/kg): 3.7 p/s (×10^6)
Organ Mean Total Flux Liver ([3]; Mouse 14, dose 0.5 mg/kg): 1175 p/s (×10^6)
Organ Mean Total Flux Lung ([3]; Mouse 14, dose 0.5 mg/kg): 16.2 p/s (×10^6)
Organ Mean Total Flux Muscle ([3]; Mouse 14, dose 0.5 mg/kg): 15.1 p/s (×10^6)
Organ Mean Total Flux Pancreas ([3]; Mouse 14, dose 0.5 mg/kg): 4.0 p/s (×10^6)
Organ Mean Total Flux Spleen ([3]; Mouse 14, dose 0.5 mg/kg): 10.2 p/s (×10^6)

EE % [1, 5]: 97%
mRNA Content [1, 5]: 105 µg/mL
EE (%) N/P:6 ([1]; Formulation F1, N/P 6): 100%
EE (%) N/P:6 ([1]; Formulation F2, N/P 6): 100%
EE (%) N/P:6 ([1]; Formulation F3, N/P 6): 97%
EE (%) N/P:6 ([1]; Formulation F4, N/P 6): 99%
Particle Size (nm) [2, 6]: 86 nm
PDI [2, 5]: 0.13
PDI N/P:6 ([2]; Formulation F1, N/P 6): 0.16
Size (nm) N/P:6 ([2]; Formulation F1, N/P 6): 77 ± 7 nm
PDI N/P:6 ([2]; Formulation F2, N/P 6): 0.11
Size (nm) N/P:6 ([2]; Formulation F2, N/P 6): 88 ± 3 nm
PDI N/P:6 ([2]; Formulation F3, N/P 6): 0.14
Size (nm) N/P:6 ([2]; Formulation F3, N/P 6): 91 ± 1 nm
PDI N/P:6 ([2]; Formulation F4, N/P 6): 0.30
Size (nm) N/P:6 ([2]; Formulation F4, N/P 6): 74 ± 2 nm
SMILES: CCCCC/C=C\CCOC(=O)CCCCCCC(=O)OCC(COC(=O)CCCCCCC(=O)OCC/C=C\CCCCC)(COC(=O)CCC(CCCCCC)OC(=O)NCCN1CCCC1)COC(=O)CC12CC3CC(CC(C3)C1)C2 (centres unmarked) [Compound 11, O8-[2-[[2-(1-adamantyl)acetyl]oxymethyl]-2-[[8-[(Z)-non-3-enoxy]-8-oxo-octanoyl]oxymethyl]-3-[4-(2-pyrrolidin-1-ylethylcarbamoyloxy)decanoyloxy]propyl]O1-[(Z)-non-3-enyl]octanedioate]
Organ Mean Total Flux Femur ([3]; Mouse 1, dose 0.3 mg/kg): 5.3 p/s (×10^6)
Organ Mean Total Flux Heart ([3]; Mouse 1, dose 0.3 mg/kg): 2.3 p/s (×10^6)
Organ Mean Total Flux Kidney ([3]; Mouse 1, dose 0.3 mg/kg): 2.4 p/s (×10^6)
Organ Mean Total Flux Liver ([3]; Mouse 1, dose 0.3 mg/kg): 5140 p/s (×10^6)
Organ Mean Total Flux Lung ([3]; Mouse 1, dose 0.3 mg/kg): 27.7 p/s (×10^6)
Organ Mean Total Flux Muscle ([3]; Mouse 1, dose 0.3 mg/kg): 21.8 p/s (×10^6)
Organ Mean Total Flux Pancreas ([3]; Mouse 1, dose 0.3 mg/kg): 6.0 p/s (×10^6)
Organ Mean Total Flux Spleen ([3]; Mouse 1, dose 0.3 mg/kg): 32.3 p/s (×10^6)

SMILES: CCCCC/C=C\CCOC(=O)CCCCCCC(=O)OCC(COC(=O)CCCCCCC(=O)OCC/C=C\CCCCC)(COC(=O)CCC(CCCCCC)OC(=O)NCCN1CCCC1)COC(=O)CCC(OCCCCCCCC)OCCCCCCCC (centres unmarked) [Compound 12, O8-[2-(4,4-dioctoxybutanoyloxymethyl)-2-[[8-[(Z)-non-3-enoxy]-8-oxo-octanoyl]oxymethyl]-3-[4-(2-pyrrolidin-1-ylethylcarbamoyloxy)decanoyloxy]propyl]O1-[(Z)-non-3-enyl]octanedioate]
EE % [1, 5]: 97%
mRNA Content [1, 5]: 91 µg/mL
EE (%) N/P:6 ([1]; Formulation F1, N/P 6): 98%
EE (%) N/P:6 ([1]; Formulation F2, N/P 6): 98%
EE (%) N/P:6 ([1]; Formulation F3, N/P 6): 97%
EE (%) N/P:6 ([1]; Formulation F4, N/P 6): 98%
Particle Size (nm) [2, 6]: 83.7 nm
PDI [2, 5]: 0.119
PDI N/P:6 ([2]; Formulation F1, N/P 6): 0.16
Size (nm) N/P:6 ([2]; Formulation F1, N/P 6): 81 ± 9 nm
PDI N/P:6 ([2]; Formulation F2, N/P 6): 0.07
Size (nm) N/P:6 ([2]; Formulation F2, N/P 6): 84 ± 5 nm
PDI N/P:6 ([2]; Formulation F3, N/P 6): 0.04
Size (nm) N/P:6 ([2]; Formulation F3, N/P 6): 93 ± 1 nm
PDI N/P:6 ([2]; Formulation F4, N/P 6): 0.09
Size (nm) N/P:6 ([2]; Formulation F4, N/P 6): 63 ± 0 nm
Organ Mean Total Flux Femur ([3]; Mouse 1, dose 0.3 mg/kg): 1.3 p/s (×10^6)
Organ Mean Total Flux Heart ([3]; Mouse 1, dose 0.3 mg/kg): 0.1 p/s (×10^6)
Organ Mean Total Flux Kidney ([3]; Mouse 1, dose 0.3 mg/kg): 0.2 p/s (×10^6)
Organ Mean Total Flux Liver ([3]; Mouse 1, dose 0.3 mg/kg): 61.8 p/s (×10^6)
Organ Mean Total Flux Lung ([3]; Mouse 1, dose 0.3 mg/kg): 0.7 p/s (×10^6)
Organ Mean Total Flux Muscle ([3]; Mouse 1, dose 0.3 mg/kg): 2.7 p/s (×10^6)
Organ Mean Total Flux Pancreas ([3]; Mouse 1, dose 0.3 mg/kg): 0.2 p/s (×10^6)
Organ Mean Total Flux Spleen ([3]; Mouse 1, dose 0.3 mg/kg): 0.7 p/s (×10^6)

Source: patent US20260234115A1, “LIPID COMPOUNDS, COMPOSITIONS, AND USES THEREOF” (Liberate Bio, Inc., priority 2023, published 2026)
